The values that follow come from patent US7572606B1 (Nereus Pharmaceuticals, Inc., priority 2005, dated 2009).

Several values for one entry are separate records, joined by “and”; a condition that tells them apart may be missing. Equal entries are not always repeated. Where two headings read alike, the source gives them in different places. Peptide text beside a SMILES is read from it. * marks the point of attachment. Cbz = O=C(OCc1ccccc1)*

By EC50 is commonly meant the concentration that produces a half-maximal response.

One data set relates to B16-F10. Kind of data set: Cell growth inhibition, resazurin, 48 h. It is filed as cell-based, mouse. As to conditions: Mus musculus, B16-F10, 48 h, B16-F10, 48 h drug exposure. How it is done: (§1) RPMI 8226 (CCL-155), HT-29 (HTB-38), and B16-F10 (CRL-6475) cells were purchased from ATCC. RPMI 8226 cells were maintained in RPMI 1640 media supplemented with 10% (v/v) FBS, 2 mM L-glutamine, 1 mM sodium pyruvate and Penicillin/Streptomycin at 100 IU/ml and 100 μg/ml, respectively. HT-29 cells were maintained in McCoys 5A supplemented with 10% (v/v) FBS, 2 mM L-glutamine, 1 mM sodium pyruvate, 1% (v/v) non-essential amino acids, 10 mM HEPES and Penicillin/Streptomycin at 100 IU/ml and 100 μg/ml, respectively. B16-F10 cells were maintained in DMEM supplemented with 10% (v/v) FBS, 2 mM L-glutamine, 10 mM HEPES and Penicillin/Streptomycin at 100 IU/ml and 100 μg/ml, respectively.
(§2) RPMI 8226 cells were seeded at 2×10^4 cells/well in 90 μl RPMI media containing 10% (v/v) FBS or 1% (v/v) FBS into 96 well black-walled, clear-bottom tissue culture plates. […] Formulae II-16, II-17 and Formula II-18 were serially diluted in media containing 1% or 10% FBS and added in triplicate to the test wells. […] The final concentration of Formula II-18 ranged from 2 μM to 630 pM.
In general terms: Resazurin is reduced to fluorescent resorufin, in cell work by metabolically active cells.

Another data set concerns HT-29. Kind of data set: Cell growth inhibition, resazurin, 48 h. It is filed as cell-based, human. As to conditions: Homo sapiens, HT-29, 48 h, HT-29, 48 h drug exposure. How it is done: as §1, §2
A further data set relates to MDA-MB-231. Nature of the data set: Cell growth inhibition, resazurin, 48 h. As to conditions: Homo sapiens, MDA-MB-231, 48 h, MDA-MB-231, 48 h drug exposure. The format is cell-based, human.
A further data set concerns NCI-H292. Kind of data set: Cell growth inhibition, resazurin, 48 h. The format is cell-based, human. As to conditions: Homo sapiens, NCI-H292, 48 h, NCI-H292, 48 h drug exposure.
The test system of a further data set is OVCAR-3. Kind of data set: Cell growth inhibition, resazurin, 48 h. As to conditions: OVCAR-3, 48 h drug exposure. It is filed as cell-based, human.
A further data set deals with RPMI 8226. Nature of the data set: Cell growth inhibition, resazurin, 48 h. How it is done: as §1, §2
In data set [1] the target is T1, trypsin-like activity of rabbit muscle 20S proteasome (Oryctolagus cuniculus, UniProt G1SWK8).
T1 construct: EC50 Trypsin-like; other: purified rabbit 20S proteasome, Boc-LRR-AMC; other: under the conditions tested
T1 sequence (G1SWK8 1-271): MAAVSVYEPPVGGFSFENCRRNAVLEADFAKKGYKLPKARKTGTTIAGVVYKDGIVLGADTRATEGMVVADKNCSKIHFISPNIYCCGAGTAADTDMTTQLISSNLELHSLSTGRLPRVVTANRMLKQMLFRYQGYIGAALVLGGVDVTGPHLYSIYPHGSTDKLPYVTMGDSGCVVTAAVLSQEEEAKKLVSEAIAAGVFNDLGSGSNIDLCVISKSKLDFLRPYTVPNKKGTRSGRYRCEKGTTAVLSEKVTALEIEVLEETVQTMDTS
Nature of the data set: In vitro inhibition of 20S proteasome, Boc-LRR-AMC. As to conditions: for inhibition of the trypsin-like activity of the 20S proteasome: under the conditions tested. It is filed as biochemical.

Data set [2] deals with NF-κB-mediated luciferase activity in HEK293 NF-κB/Luc cells. Nature of the data set: NF-κB-mediated luciferase reporter gene assay. As to conditions: for EC50: 6 h TNF-α stimulation; for luciferase activity upon TNF-α stimulation: pretreatment of NF-κB/Luc 293 cells. The format is cell-based, human. How it is done:
The HEK293 NF-κB/luciferase reporter cell line is a derivative of the human embryonic kidney cell line (ATCC; CRL-1573) and carries a luciferase reporter gene under the regulation of 5×NF-κB binding sites. […] When performing the luciferase assay, the DMEM basal medium was replaced with phenol-red free DMEM basal medium and the G418 was omitted.
For NF-κB-mediated luciferase assays, HEK293 NF-κB/luciferase cells were seeded at 1.5×10^4 cells/well in 90 μl phenol-red free DMEM complete medium into Corning 3917 white opaque-bottom tissue culture plates. For Formulae II-2, II-4, II-5A and II-18, a 400 μM starting dilution was made in 100% DMSO and this dilution was used to generate an 8-point half log dilution series. […] For formula II-20, a 2.5 mM or 8 mM starting dilution was made in 100% DMSO and the final test concentrations ranged from 6.3 μM to 2.0 nM or 20 μM to 6.3 nM respectively. The plates were returned to the incubator for 1 hour. After 1 hr pretreatment, 10 μl of a 50 ng/ml TNF-α solution, prepared in the phenol-red free DMEM medium was added, and the plates were incubated for an additional 6 hours.
At the end of the TNF-α stimulation, 100 μl of Steady Lite HTS luciferase reagent (Packard Bioscience) was added to each well and the plates were left undisturbed for 10 min at room temperature before measuring the luciferase activity. The relative luciferase units (RLU) were measured by using a Fusion microplate fluorometer (Packard Bioscience).
NF-κB inducible luciferase activity was measured at 6 hours.

The test system of the next data set is PC-3. Kind of data set: Cell growth inhibition, resazurin, 48 h. As to conditions: Homo sapiens, PC-3, 48 h, PC-3, 48 h drug exposure.
Data set [3] concerns the target caspase-like (PGPH) activity of rabbit muscle 20S proteasome (Oryctolagus cuniculus, UniProt A0A5F9DQW2). Nature of the data set: In vitro inhibition of 20S proteasome, Z-LLE-AMC. As to conditions: read-out: EC50 Caspase-like (PGPH), purified rabbit 20S proteasome, Z-LLE-AMC.
The target of data set [4] is T2, chymotrypsin-like activity of rabbit muscle 20S proteasome (Oryctolagus cuniculus, UniProt G1T4Q9).
T2 sequence (G1T4Q9 1-263): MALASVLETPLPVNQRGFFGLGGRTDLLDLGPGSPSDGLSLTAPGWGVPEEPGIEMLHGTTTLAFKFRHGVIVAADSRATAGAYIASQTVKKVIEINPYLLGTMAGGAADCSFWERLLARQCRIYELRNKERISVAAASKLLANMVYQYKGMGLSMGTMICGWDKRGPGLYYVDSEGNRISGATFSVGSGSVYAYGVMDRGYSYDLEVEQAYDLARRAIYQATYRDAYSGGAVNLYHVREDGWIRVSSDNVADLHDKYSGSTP
Kind of data set: In vitro inhibition of 20S proteasome, suc-LLVY-AMC.

The test system of data set [5] is LeTx-induced cytotoxicity of RAW264.7 cells. As to conditions: cited from earlier work.
A further data set can be described thus: Stability in solution. The format is physicochemical. As to conditions: converted to compound VI-1B, mixture 7:3. How it is done: The reaction mixture was stirred at room temperature for about 3 hours. The solvent was evaporated from the reaction mixture to yield the compound of Formula II-48, which was purified by reversed phase HPLC using Ace 5u C18 column (150 mm×22 mm ID) with a solvent gradient of 10% to 70% H2O/Acetonitrile over 15 min, 70 to 100% Acetonitrile over 5 min, holding at 100% Acetonitrile for 4 min, at a flow rate of 14.5 ml/min. Diode array detector was used to monitor the purification process. Compound II-48 (10 mg) eluted as a pure compound at 8.255 min. […] Compound VI-1B: UV (Acetonitrile/H2O) λmax 235 (sh) nm; ESMS, m/z 585.2 (M+H)^+.

The next data set deals with U266. Kind of data set: Cell growth inhibition, resazurin, 48 h. The format is cell-based, human. As to conditions: Homo sapiens, U-266, 48 h, U266, 48 h drug exposure; read-out: EC50.
For a further data set, the system named is MES-SA. Kind of data set: Cell growth inhibition, resazurin, 48 h. As to conditions: 48 h drug exposure. How it is done:
(§3) Concentrations ranging from 6.32 μM to 2 nM were tested for II-2 and II-4.

For the next data set, the system named is HL-60/MX2. Nature of the data set: Cell growth inhibition, resazurin, 48 h. As to conditions: HL-60/MX2, 48 h drug exposure. How it is done:
(§4) The DNA binding agent Mitoxantrone was included as a control, as HL-60/MX2 cells are reported to be resistant to this chemotherapeutic agent (Harker W. G. et al. 1989).
as §3

Another data set deals with HL-60. Nature of the data set: Cell growth inhibition, resazurin, 48 h. As to conditions: HL-60, 48 h drug exposure. How it is done:
as §4, §3

The test system of data set [6] is proteasome in packed whole blood lysate. Nature of the data set: Dose response on PWBL lysates in vitro. The format is biochemical, mouse. As to conditions: lysates of vehicle and 0.1 mg/kg Salinosporamide A treated animals. An excerpt: Palayoor et al., Oncogene 18:7389-94 (1999).

Sequence of caspase-like (PGPH) activity of rabbit muscle 20S proteasome (A0A5F9DQW2 1-212): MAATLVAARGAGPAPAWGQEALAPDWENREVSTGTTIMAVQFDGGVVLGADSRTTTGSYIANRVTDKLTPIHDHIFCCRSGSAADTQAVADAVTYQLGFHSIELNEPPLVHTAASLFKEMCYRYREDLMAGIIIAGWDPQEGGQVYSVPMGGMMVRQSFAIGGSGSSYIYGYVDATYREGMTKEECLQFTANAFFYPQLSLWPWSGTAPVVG

Take `C[C@@]12OC(=O)[C@]1([C@@H](O)[C@@H]1C=CCCC1)NC(=O)[C@@H]2CCI` [Formula II-19]: the EC50 was 13 ± 1.9 nM with B16-F10; 11 ± 1.6 nM in the data set on HT-29; 14 ± 3.2 nM in the data set with MDA-MB-231; 27 ± 3.8 nM with NCI-H292; 24 nM in the data set with OVCAR-3 (Homo sapiens, OVCAR-3, 48 h); 20 nM in the data set with OVCAR-3. Further, the EC50 is 6 nM and 7 nM in the data set on RPMI 8226 (RPMI 8226, 48 h drug exposure); 15 nM in [1] (purified rabbit 20S proteasome, Boc-LRR-AMC); 10 nM in data set [2] (1 h pretreatment); 10 nM in data set [2] (1 h pretreatment, listed as II-19); 7 nM in data set [2] (Homo sapiens, HEK293, 1 h pretreatment); 29 ± 4 nM in the data set with PC-3. In addition, the EC50 in [3] is 739 nM; in data set [4], 2 to 11 nM. Besides, the “inhibition of the trypsin-like activity of the 20S proteasome” value in data set [1] is “able to inhibit the trypsin-like activity”. In data set [2], the “luciferase activity upon TNF-α stimulation” value was “dose-dependent decrease of luciferase activity”.
With `CC(C)C[C@@H](C=O)NC(=O)[C@H](CC(C)C)NC(=O)[C@H](CC(C)C)NC(=O)OCc1ccccc1` [MG132] (Cbz-Leu-Leu-Leu-aldehyde), the concentration for a half-maximal effect (EC50) in data set [5] is 3000 nM.
Consider `CC(=O)N[C@@H](CSC(=O)[C@]1([C@@H](O)C(C)C)NC(=O)[C@H](C)[C@@H]1O)C(=O)O` [Lactacystin], for which the half-maximal effective concentration (EC50) in [5] is 3000 nM.
As to `C[C@]1(O)[C@@H](CCCl)C(=O)N[C@]1(C(=O)SCC(NC(=O)CCC(N)C(=O)O)C(=O)NCC(=O)O)[C@@H](O)[C@@H]1C=CCCC1` (some centres unmarked) [Formula II-48], the stability in solution result in the data set “Stability in solution” was “unstable in solution”.
On to `C[C@@]12OC(=O)[C@]1([C@@H](O)[C@@H]1C=CCCC1)NC(=O)[C@@H]2CCBr` [Formula II-18], for which the EC50 is 6.3 nM with RPMI 8226 (Homo sapiens, RPMI-8226, 48 h, RPMI 8226, 48 h drug exposure); 14 nM in the data set on RPMI 8226 (Homo sapiens, RPMI-8226, read-out: 1% FBS, EC50, Mean, RPMI 8226, media containing 1% FBS, mean of two); 20 nM in the data set on RPMI 8226 (Homo sapiens, RPMI-8226, read-out: 10% FBS, EC50, Mean, RPMI 8226, media containing 10% FBS, mean of two); 4.2 nM with U266; 17 nM with MES-SA; 22 nM in the data set with MES-SA (Homo sapiens, 48 h). The EC50 was 18 nM in the data set with HL-60/MX2; 19 nM in the data set on HL-60/MX2 (Homo sapiens, HL60/MX2, 48 h); 23 nM in the data set with HL-60; 27 nM in the data set with HL-60 (Homo sapiens, HL-60, 48 h); 11 nM in data set [2] (1 h pretreatment, listed as II-18, read-out: EC50); 11 nM in data set [2] (1 h pretreatment, read-out: EC50). Further, the EC50 in [2] (Homo sapiens, HEK293, 1 h pretreatment, read-out: EC50) was 9 nM; in data set [3], 286 nM and 213 nM; in data set [3] (listed as II-18), 286 nM and 213 nM. For the same compound, in the data set on RPMI 8226 (human, 48 h), the “% cytotoxicity” value is 94, 94%. The “inhibition of the trypsin-like activity of the 20S proteasome” value in [1] was “able to inhibit the trypsin-like activity”. Moreover, the “luciferase activity upon TNF-α stimulation” value in data set [2] was “dose-dependent decrease of luciferase activity”.
Consider `CC[C@H](C)[C@H](NC(=O)[C@H]([C@@H](C)CC)N(C)C(C)=O)C(=O)N[C@H](C(=O)N[C@@H](CC(C)C)C(=O)[C@@]1(C)CO1)[C@@H](C)O` [Epoxomicin], for which the “hydrolysis of the proteasome substrate in PWBL lysates” value in data set [6] is “dose dependent inhibition in the hydrolysis of the proteasome substrate”.
